# Reference: patent US7053245B2, “N-acylamino benzyl ether derivatives” (Hoffmann-La Roche Inc., priority 2002, dated 2006)
# Counter-ions that a name gives are not always drawn.
# Target: T1, human MAO-B (Homo sapiens, UniProt P27338)
# T1 construct: expressed in transfected cells; host or cells: EBNA cells (transient transfection); cell membranes used
# T1 sequence (P27338 1-520): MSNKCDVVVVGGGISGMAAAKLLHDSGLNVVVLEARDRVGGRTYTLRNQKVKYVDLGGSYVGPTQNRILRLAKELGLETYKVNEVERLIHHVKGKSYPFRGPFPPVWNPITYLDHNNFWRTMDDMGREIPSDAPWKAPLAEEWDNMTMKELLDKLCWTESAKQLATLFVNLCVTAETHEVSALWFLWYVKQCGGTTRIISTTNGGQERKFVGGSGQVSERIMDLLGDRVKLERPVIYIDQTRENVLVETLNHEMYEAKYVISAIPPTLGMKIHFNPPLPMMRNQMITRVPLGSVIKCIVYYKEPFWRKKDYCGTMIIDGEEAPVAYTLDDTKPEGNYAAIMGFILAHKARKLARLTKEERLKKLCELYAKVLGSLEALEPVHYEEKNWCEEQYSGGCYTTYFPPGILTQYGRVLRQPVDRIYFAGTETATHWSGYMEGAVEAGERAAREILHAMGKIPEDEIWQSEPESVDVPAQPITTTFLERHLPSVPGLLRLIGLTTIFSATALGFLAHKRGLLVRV
# Experiment: MAO-B enzymatic activity, spectrophotometric Amplex Red/peroxidase assay on membranes of transfected EBNA cells
# Format: biochemical
# Details: membranes preincubated with compound 30 min at 37° C., pH 7.4; substrate tyramine; nine inhibitor concentrations in duplicate
# Protocol: The cDNA's encoding human MAO-A and MAO-B were transiently transfected into EBNA cells using the procedure described by E.-J. Schlaeger and K. Christensen (Transient Gene Expression in Mammalian Cells Grown in Serum-free Suspension Culture; Cytotechnology, 15: 1-13, 1998). After transfection, cells were homogenised by means of a Polytron homogenizer in 20 mM Tris HCl buffer, pH 8.0, containing 0.5 mM EGTA and 0.5 mM phenylmethanesulfonyl fluoride. Cell membranes were obtained by centrifugation at 45,000×g and, after two rinsing step with 20 mM Tris HCl buffer, pH 8.0, containing 0.5 mM EGTA, membranes were eventually re-suspended in the above buffer and aliquots stored at −80° C. until use.
# MAO-A and MAO-B enzymatic activity was assayed in 96-well-plates using a spectrophometric assay adapted from the method described by M. Zhou and N. Panchuk-Voloshina (A One-Step Fluorometric Method for the Continuous Measurement of Monoamine Oxidase Activity, Analytical Biochemistry, 253: 169-174, 1997). Briefly, membrane aliquots were incubated in 0.1 M potassium phosphate buffer, pH 7.4, for 30 min at 37° C. with or without various concentrations of the compounds. After this period, the enzymatic reaction was started by the addition of the MAO substrate tyramine together with 1 U/ml horse-radish peroxidase (Roche Biochemicals) and 80 μM N-acetyl-3,7,-dihydroxyphenoxazine (Amplex Red, Molecular Probes). The samples were further incubated for 30 min at 37° C. in a final volume of 200 μl and absorbance was then determine at a wavelength of 570 nm using a SpectraMax plate reader (Molecular Devices). Background (non-specific) absorbance was determined in the presence of 10 μM clorgyline for MAO-A or 10 μM L-deprenyl for MAO-B.
# IC50 values were determined from inhibition curves obtained using nine inhibitor concentrations in duplicate, by fitting data to a four parameter logistic equation using a computer program.
row,SMILES,IC50 [nM]
1,"COC(=O)CC(=O)Nc1ccc(OCc2cccc(F)c2)cc1 [Example 1, N-[4-(3-Fluoro-benzyloxy)-phenyl]-malonamic acid methyl ester]",11
2,"NC(=O)C1(C(=O)Nc2ccc(OCc3cccc(F)c3)cc2)CC1 [Example 2, Cyclopropane-1,1-dicarboxylic acid amide [4-(3-fluoro-benzyloxy)-phenyl]-amide]",7.9
3,"NC(=O)CC(=O)Nc1ccc(OCc2cccc(F)c2)cc1 [Example 3, N-[4-(3-Fluoro-benzyloxy)-phenyl]-malonamide]",10.9
4,"CC(C(N)=O)C(=O)Nc1ccc(OCc2cccc(F)c2)cc1 (stereo not drawn) [Example 6, N-[4-(3-Fluoro-benzyloxy)-phenyl]-2-methyl-malonamide]",13
5,"COC(=O)CC(=O)Nc1ccc(OCc2cccc(F)c2)c(F)c1 [Example 8, N-[3-Fluoro-4-(3-fluoro-benzyloxy)-phenyl]-malonamic acid methyl ester]",9.6
6,"NC(=O)CC(=O)Nc1ccc(OCc2cccc(F)c2)c(F)c1 [Example 9, N-[3-Fluoro-4-(3-fluoro-benzyloxy)-phenyl]-malonamide]",7.2
7,"COC(=O)CC(=O)Nc1ccc(OCc2ccc(F)cc2)cc1 [Example 10, N-[4-(4-Fluoro-benzyloxy)-phenyl]-malonamic acid methyl ester]",11.2
8,"NC(=O)CC(=O)Nc1ccc(OCc2ccc(F)cc2)cc1 [Example 11, N-[4-(4-Fluoro-benzyloxy)-phenyl]-malonamide]",7.5
9,"COC(=O)CC(=O)Nc1ccc(OCc2cccc(F)c2)cc1F [Example 14, N-[2-Fluoro-4-(3-fluoro-benzyloxy)-phenyl]-malonamic acid methyl ester]",9
10,"COC(=O)CC(=O)Nc1ccc(OCc2ccc(F)cc2F)cc1 [Example 25, N-[4-(2,4-Difluoro-benzyloxy)-phenyl]-malonamic acid methyl ester]",11
11,"COC(=O)CC(=O)Nc1ccc(OCc2cc(F)c(F)cc2F)cc1 [Example 27, N-[4-(2,4,5-Trifluoro-benzyloxy)-phenyl]-malonamic acid methyl ester]",11
12,"NC(=O)CC(=O)Nc1ccc(OCc2ccc(F)cc2F)cc1 [Example 28, N-[4-(2,4-Difluoro-benzyloxy)-phenyl]-malonamide]",8
13,"NC(=O)CC(=O)Nc1ccc(OCc2cc(F)c(F)cc2F)cc1 [Example 29, N-[4-(2,4,5-Trifluoro-benzyloxy)-phenyl]-malonamide]",8
14,"NC(=O)CC(=O)Nc1ccc(OCc2ccc(Cl)cc2)cc1 [Example 34, N-[4-(4-Chloro-benzyloxy)-phenyl]-malonamide]",18
15,"NC(=O)CC(=O)Nc1ccc(OCc2cccc(F)c2)cc1O [Example 38, N-[4-(3-Fluoro-benzyloxy)-2-hydroxy-phenyl]-malonamide]",16
16,"COC(=O)CC(=O)Nc1ccc(OCc2ccc(F)cc2)cc1F [Example 39, N-[2-Fluoro-4-(4-fluoro-benzyloxy)-phenyl]-malonamic acid methyl ester]",5
17,"NC(=O)CC(=O)Nc1ccc(OCc2ccc(F)cc2)cc1F [Example 40, N-[2-Fluoro-4-(4-fluoro-benzyloxy)-phenyl]-malonamide]",15
18,"COC(=O)CC(=O)Nc1ccc(OCc2cc(C(F)(F)F)cc(C(F)(F)F)c2)cc1F [Example 41, N-[4-(3,5-Bis-trifluoromethyl-benzyloxy)-2-fluoro-phenyl]-malonamic acid methyl ester]",13
19,"NC(=O)CC(=O)Nc1ccc(OCc2ccc(C(F)(F)F)cc2)cc1F [Example 44, N-[2-Fluoro-4-(4-trifluoromethyl-benzyloxy)-phenyl]-malonamide]",9
20,"COC(=O)CC(=O)Nc1ccc(OCc2cccc(F)c2)c(C)c1 [Example 47, N-[4-(3-Fluoro-benzyloxy)-3-methyl-phenyl]-malonamic acid methyl ester]",14
21,"Cc1cc(NC(=O)CC(N)=O)ccc1OCc1cccc(F)c1 [Example 48, N-[4-(3-Fluoro-benzyloxy)-3-methyl-phenyl]-malonamide]",19
22,"COC(=O)CC(=O)Nc1ccc(OCc2cccc(F)c2)c(Cl)c1 [Example 49, N-[3-Chloro-4-(3-fluoro-benzyloxy)-phenyl]-malonamic acid methyl ester]",10
23,"NC(=O)CC(=O)Nc1ccc(OCc2cccc(F)c2)c(Cl)c1 [Example 50, N-[3-Chloro-4-(3-fluoro-benzyloxy)-phenyl]-malonamide]",6
24,"COC(=O)CC(=O)Nc1ccc(C=Cc2ccc(F)cc2)cc1 [Example 56, N-{4-[2-(4-Fluoro-phenyl)-vinyl]-phenyl}-malonamic acid methyl ester]",10
25,"NC(=O)CC(=O)Nc1ccc(C=Cc2ccc(F)cc2)cc1 [Example 57, N-{4-[2-(4-Fluoro-phenyl)-vinyl]-phenyl}-malonamide]",18
26,"NCC(=O)Nc1ccc(OCc2ccc(F)cc2)cc1F [Example 66, 2-Amino-N-[2-fluoro-4-(4-fluoro-benzyloxy)-phenyl]-acetamide (1:1) hydrochloride]",16
27,"CC(=O)NCC(=O)Nc1ccc(OCc2ccc(F)cc2)cc1F [Example 70, 2-Acetylamino-N-[2-fluoro-4-(4-fluoro-benzyloxy)-phenyl]-acetamide]",11
28,"O=CNCC(=O)Nc1ccc(OCc2ccc(F)cc2)cc1F [Example 72, N-[2-Fluoro-4-(4-fluoro-benzyloxy)-phenyl]-2-formylamino-acetamide]",7
29,"CC(=O)NCC(=O)Nc1ccc(OCc2cccc(F)c2)cc1F [Example 75, 2-Acetylamino-N-[2-fluoro-4-(3-fluoro-benzyloxy)-phenyl]-acetamide]",13
30,"O=CNCC(=O)Nc1ccc(OCc2cccc(F)c2)cc1F [Example 76, N-[2-Fluoro-4-(3-fluoro-benzyloxy)-phenyl]-2-formylamino-acetamide]",16
